Values of other authors in patent US11384062B2 (CombiPhos Catalysts, Inc., priority 2017, dated 2022).
Where two headings read alike, the source gives them in different places.

Assays:
[1] = dosed IV to bile duct cannulated rats; cited from earlier work
PARP = conditions: read-out: EC50, inhibition of PARP activity; whole cell assay; cited from earlier work
[2] = test system: cancer cells with mutant BRCA-1 and BRCA-2; conditions: read-out: CC50, inhibition of proliferation; cited from earlier work
[3] = test system: BRCA-1 deficient cancer xenograft; conditions: cited from earlier work
[4] = test system: CAPAN-1 pancreatic cancer cell xenograft; conditions: 80 mg/kg qd, oral dosing, for two, three, or four weeks; cited from earlier work
[5] = test system: human tumor xenografts, p53 wild type and p53 mutant; conditions: variety of human tumor xenografts; cited from earlier work
recurrent ovarian cancer = conditions: cited from earlier work

Compound	recovered radioactivity as the parent drug [1] [%]	EC50 (PARP) [nM]	CC50 [2] [nM]	tumor growth ([3]; 80 mg/kg qd, oral dosing, after one or two weeks of treatment)	tumor growth ([3]; after four week treatment)	tumor growth ([3]; continuous daily dosing for three or four weeks)	tumor growth inhibition [4] [%]	effect on radiation response [5]	median PFS (recurrent ovarian cancer; germline BRCA mutant patients) [months]	median PFS (recurrent ovarian cancer; non-gBRCAmut cohort, HRD-positive tumors) [months]	median PFS (recurrent ovarian cancer; overall non-germline BRCA mutant cohort) [months]	discontinuation rate (recurrent ovarian cancer; patients) [%]	treatment-emergent grade 3/4 adverse event: anemia (recurrent ovarian cancer; patients) [%]	treatment-emergent grade 3/4 adverse event: neutropenia (recurrent ovarian cancer; patients) [%]	treatment-emergent grade 3/4 adverse event: thrombocytopenia (recurrent ovarian cancer; patients) [%]
NC(=O)c1cccc2cn(-c3ccc([C@@H]4CCCNC4)cc3)nc12 [[^14C]-niraparib]	45	–	–	–	–	–	–	–	–	–	–	–	–	–	–
NC(=O)c1cccc2cn(-c3ccc([C@@H]4CCCNC4)cc3)nc12 [niraparib, (S)-2-(4-(piperidin-3-yl)phenyl)-2H-indazole-7-carboxamide]	–	[…]	10 to 100	significant inhibition of tumor growth	complete and sustained regression	tumor shrinkage	~60	strongly enhances the effect of radiation	21.0	12.9	9.3	14.7	24.8	11.2	28.3
